Data as given in patent US20050100561A1, “Use of topical compositions for the control of microbial diseases of the nail” (priority 2002, published 2005).
Marks after values point to notes of the source that are not given here.

Experiments:
onychomycosis = experiment: Treatment of onychomycosis with topical copper silicate (cream or solution), patient trial; format: in vivo, human; conditions: for Clinical - 100% clear / Clinical - New growth clear / Complete cure (KOH negative, culture negative and 100% clear) / Mycology (KOH negative and culture negative) / Mycology (KOH negative or culture negative): interim, applied twice daily
Method: Subjects, not already receiving anti-fungal treatment, were assessed for clinical diagnosis of onychomycosis and photographs and nail clippings were taken. Those testing positive for onychomycosis were admitted to the trial.
The anti-fungal composition (cream or solution) was applied to the infected nail twice daily for the duration of the treatment.
Estimates of the nail area involved were made during clinical visits and photographs were taken. Nail clippings were collected for KOH and dermatophyte culture. […] Results
The results presented hereunder are interim results of a 12 month study. Patients entered the trial and commenced their treatment at different dates. […] Patients were assessed at 0 (commencement). 6 weeks and 12 weeks.

Trichophyton rubrum = conditions: modal value, n=26
[1] = system: T. mentagrophytes var interdigitale; conditions: modal value, n=19
T. mentagrophytes = conditions: modal value, n=12
T. tonsurans = conditions: modal value, n=10
Epidermophyton floccosum = conditions: modal value, n=11
Microsporum canis = conditions: modal value, n=9
M. gypseum = conditions: modal value, n=9
Aspergillus flavus = conditions: modal value, n=12
A. fumigatus = conditions: modal value, n=12
A. niger = conditions: modal value, n=14
A. terrus = conditions: modal value, n=7
Fusarium spp. = conditions: modal value, n=16
Scopulariopsis spp. = conditions: modal value, n=5
Scedosporium spp. = conditions: modal value, n=5
Candida albicans = conditions: modal value, n=10
C. tropicalis = conditions: modal value, n=10
C. parasilosis = conditions: modal value, n=10
C. glabrate = conditions: modal value, n=4
[2] = system: C. pseudotropicalis (kefyr); conditions: modal value, n=1
C. krusei = conditions: modal value, n=1
[3] = Post-treatment Week 13 (N = 18)
[4] = Post-treatment Week 13 (N = 18), = 39 weeks
[5] = Post-treatment Week 26 (N = 18)
[6] = Treatment time Week 12 (N = 18)
[7] = Treatment time Week 26 (N = 18)

copper silicate
Patients culture negative (onychomycosis; 13 weeks post-treatment): 55% | Patients "effectively treated" (onychomycosis; 26 weeks post treatment): 22% | % Nail infected 0% (clear), number of patients (onychomycosis; [3]): 3 | % Nail infected 1-10%, number of patients (onychomycosis; [3]): 1 | % Nail infected 11-50%, number of patients (onychomycosis; [3]): 6 | % Nail infected >50%, number of patients (onychomycosis; [3]): 8 | Dermatophyte culture Positive, number of patients (onychomycosis; [3]): 8 | Infecting organism T. mentagrophytes v. interdigitale, number of patients (onychomycosis; [3]): 1 | Infecting organism T. rubrum, number of patients (onychomycosis; [3]): 7 | KOH Negative, number of patients (onychomycosis; [3]): 4 | KOH Positive, number of patients (onychomycosis; [3]): 14 | New growth Clear, number of patients (onychomycosis; [3]): 15 | New growth Not clear, number of patients (onychomycosis; [3]): 3 | Outcome Complete cure, number of patients (onychomycosis; [3]): 3 | Outcome Effective treatment, number of patients (onychomycosis; [3]): 3 | Outcome Mycological cure, number of patients (onychomycosis; [3]): 3 | Dermatophyte culture Negative, number of patients (onychomycosis; [4]): 10 | Outcome Mycological change (culture positive to culture negative), number of patients (onychomycosis; [4]): 7 | Outcome Not effective, number of patients (onychomycosis; Post-treatment Week 13 (N = 18), includes 1 patient that is KOH negative): 8^@ | % Nail infected 0% (clear), number of patients (onychomycosis; [5]): 3 | % Nail infected 1-10%, number of patients (onychomycosis; [5]): 2 | % Nail infected 11-50%, number of patients (onychomycosis; [5]): 6 | % Nail infected >50%, number of patients (onychomycosis; [5]): 7 | Dermatophyte culture Positive, number of patients (onychomycosis; [5]): 9 | Infecting organism T. mentagrophytes v. interdigitale, number of patients (onychomycosis; [5]): 1 | Infecting organism T. rubrum, number of patients (onychomycosis; [5]): 8 | KOH Negative, number of patients (onychomycosis; [5]): 6 | KOH Positive, number of patients (onychomycosis; [5]): 12 | New growth Clear, number of patients (onychomycosis; [5]): 15 | New growth Not clear, number of patients (onychomycosis; [5]): 3 | Outcome Effective treatment, number of patients (onychomycosis; [5]): 4 | Outcome Mycological change (culture positive to culture negative), number of patients (onychomycosis; [5]): 5 | Outcome Mycological cure, number of patients (onychomycosis; [5]): 4 | Outcome Complete cure, number of patients (onychomycosis; Post-treatment Week 26 (N = 18), = 52 weeks): 3 | Dermatophyte culture Negative, number of patients (onychomycosis; Post-treatment Week 26 (N = 18), = 52 weeks, end of the trial): 9 | Outcome Not effective, number of patients (onychomycosis; Post-treatment Week 26 (N = 18), includes 1 patient that is KOH negative): 9^@ | % Nail infected 0% (clear), number of patients (onychomycosis; Treatment time Week 6 (N = 18)): 0 | % Nail infected 1-10%, number of patients (onychomycosis; Treatment time Week 6 (N = 18)): 2 | % Nail infected 11-50%, number of patients (onychomycosis; Treatment time Week 6 (N = 18)): 5 | % Nail infected >50%, number of patients (onychomycosis; Treatment time Week 6 (N = 18)): 11 | Dermatophyte culture Negative, number of patients (onychomycosis; Treatment time Week 6 (N = 18)): 10 | Dermatophyte culture Positive, number of patients (onychomycosis; Treatment time Week 6 (N = 18)): 8 | Infecting organism T. mentagrophytes v. interdigitale, number of patients (onychomycosis; Treatment time Week 6 (N = 18)): 1 | Infecting organism T. rubrum, number of patients (onychomycosis; Treatment time Week 6 (N = 18)): 7 | KOH Negative, number of patients (onychomycosis; Treatment time Week 6 (N = 18)): 4 | KOH Positive, number of patients (onychomycosis; Treatment time Week 6 (N = 18)): 14 | New growth Clear, number of patients (onychomycosis; Treatment time Week 6 (N = 18)): 11 | New growth Not clear, number of patients (onychomycosis; Treatment time Week 6 (N = 18)): 7 | Outcome Complete cure, number of patients (onychomycosis; Treatment time Week 6 (N = 18)): 0 | Outcome Effective treatment, number of patients (onychomycosis; Treatment time Week 6 (N = 18)): 2 | Outcome Mycological change (culture positive to culture negative), number of patients (onychomycosis; Treatment time Week 6 (N = 18)): 6 | Outcome Mycological cure, number of patients (onychomycosis; Treatment time Week 6 (N = 18)): 4 | Outcome Not effective, number of patients (onychomycosis; Treatment time Week 6 (N = 18), includes 2 patients that are KOH negative): 8^# | % Nail infected 0% (clear), number of patients (onychomycosis; [6]): 3 | % Nail infected 1-10%, number of patients (onychomycosis; [6]): 1 | % Nail infected 11-50%, number of patients (onychomycosis; [6]): 4 | % Nail infected >50%, number of patients (onychomycosis; [6]): 10 | Dermatophyte culture Negative, number of patients (onychomycosis; [6]): 11 | Dermatophyte culture Positive, number of patients (onychomycosis; [6]): 7 | Infecting organism T. mentagrophytes v. interdigitale, number of patients (onychomycosis; [6]): 1 | Infecting organism T. rubrum, number of patients (onychomycosis; [6]): 6 | KOH Negative, number of patients (onychomycosis; [6]): 4 | KOH Positive, number of patients (onychomycosis; [6]): 14 | New growth Clear, number of patients (onychomycosis; [6]): 16 | New growth Not clear, number of patients (onychomycosis; [6]): 2 | Outcome Complete cure, number of patients (onychomycosis; [6]): 2 | Outcome Effective treatment, number of patients (onychomycosis; [6]): 3 | Outcome Mycological change (culture positive to culture negative), number of patients (onychomycosis; [6]): 8 | Outcome Mycological cure, number of patients (onychomycosis; [6]): 3 | Outcome Not effective, number of patients (onychomycosis; Treatment time Week 12 (N = 18), includes 1 patient that is KOH negative): 7^@ | % Nail infected 0% (clear), number of patients (onychomycosis; [7]): 3 | % Nail infected 1-10%, number of patients (onychomycosis; [7]): 1 | % Nail infected 11-50%, number of patients (onychomycosis; [7]): 8 | % Nail infected >50%, number of patients (onychomycosis; [7]): 6 | Dermatophyte culture Negative, number of patients (onychomycosis; [7]): 12 | Dermatophyte culture Positive, number of patients (onychomycosis; [7]): 6 | Infecting organism T. mentagrophytes v. interdigitale, number of patients (onychomycosis; [7]): 1 | Infecting organism T. rubrum, number of patients (onychomycosis; [7]): 5 | KOH Negative, number of patients (onychomycosis; [7]): 6 | KOH Positive, number of patients (onychomycosis; [7]): 12 | New growth Clear, number of patients (onychomycosis; [7]): 16 | New growth Not clear, number of patients (onychomycosis; [7]): 2 | Outcome Complete cure, number of patients (onychomycosis; [7]): 3 | Outcome Effective treatment, number of patients (onychomycosis; [7]): 3 | Outcome Mycological change (culture positive to culture negative), number of patients (onychomycosis; [7]): 7 | Outcome Mycological cure, number of patients (onychomycosis; [7]): 5 | Outcome Not effective, number of patients (onychomycosis; Treatment time Week 26 (N = 18), includes 1 patient that is KOH negative): 6^@ | "Mycological cure" patients (onychomycosis; after 26 weeks): 28% | Patients with >50% of nail plate diseased having significant clinical improvement (reduction to <50% of the nail plate) (onychomycosis; at 26 weeks): 50% | "Mycological cure" rate (onychomycosis; at 52 weeks): 22% | Patients culture negative (onychomycosis; end of the trial): 50% | Patients culture negative (onychomycosis; end of treatment): 67% | Clinical - 100% clear (onychomycosis; 6 Weeks (n = 13)): 0 % of Patients | Clinical - New growth clear (onychomycosis; 6 Weeks (n = 13)): 61 % of Patients | Complete cure (KOH negative, culture negative and 100% clear) (onychomycosis; 6 Weeks (n = 13)): 0 % of Patients | Mycology (KOH negative and culture negative) (onychomycosis; 6 Weeks (n = 13)): 0 % of Patients | Mycology (KOH negative or culture negative) (onychomycosis; 6 Weeks (n = 13)): 53 % of Patients | Clinical - 100% clear (onychomycosis; 12 Weeks (n = 10)): 30 % of Patients | Clinical - New growth clear (onychomycosis; 12 Weeks (n = 10)): 70 % of Patients | Complete cure (KOH negative, culture negative and 100% clear) (onychomycosis; 12 Weeks (n = 10)): 20 % of Patients | Mycology (KOH negative and culture negative) (onychomycosis; 12 Weeks (n = 10)): 20 % of Patients | Mycology (KOH negative or culture negative) (onychomycosis; 12 Weeks (n = 10)): 80 % of Patients | Minimum Fungicidal Concentration (MFC) (Trichophyton rubrum): 0.0350 % w/w as Cu | Minimum Inhibitory Concentration (MIC) (Trichophyton rubrum): 0.0175 % w/w as Cu | Minimum Fungicidal Concentration (MFC) [1]: 0.0350 % w/w as Cu | Minimum Inhibitory Concentration (MIC) [1]: 0.0175 % w/w as Cu | Minimum Fungicidal Concentration (MFC) (T. mentagrophytes): 0.0350 % w/w as Cu | Minimum Inhibitory Concentration (MIC) (T. mentagrophytes): 0.0175 % w/w as Cu | Minimum Fungicidal Concentration (MFC) (T. tonsurans): 0.0350 % w/w as Cu | Minimum Inhibitory Concentration (MIC) (T. tonsurans): 0.0350 % w/w as Cu | Minimum Fungicidal Concentration (MFC) (Epidermophyton floccosum): 0.0350 % w/w as Cu | Minimum Inhibitory Concentration (MIC) (Epidermophyton floccosum): 0.0350 % w/w as Cu | Minimum Fungicidal Concentration (MFC) (Microsporum canis): 0.0700 % w/w as Cu | Minimum Inhibitory Concentration (MIC) (Microsporum canis): 0.0350 % w/w as Cu | Minimum Fungicidal Concentration (MFC) (M. gypseum): 0.1400 % w/w as Cu | Minimum Inhibitory Concentration (MIC) (M. gypseum): 0.0350 % w/w as Cu | Minimum Fungicidal Concentration (MFC) (Aspergillus flavus): >0.1400 % w/w as Cu | Minimum Inhibitory Concentration (MIC) (Aspergillus flavus): 0.1400 % w/w as Cu | Minimum Fungicidal Concentration (MFC) (A. fumigatus): >0.1400 % w/w as Cu | Minimum Inhibitory Concentration (MIC) (A. fumigatus): 0.0350 % w/w as Cu | Minimum Fungicidal Concentration (MFC) (A. niger): 0.1400 % w/w as Cu | Minimum Inhibitory Concentration (MIC) (A. niger): 0.0350 % w/w as Cu | Minimum Fungicidal Concentration (MFC) (A. terrus): >0.1400 % w/w as Cu | Minimum Inhibitory Concentration (MIC) (A. terrus): 0.0700 % w/w as Cu | Minimum Fungicidal Concentration (MFC) (Fusarium spp.): 0.0700 % w/w as Cu | Minimum Inhibitory Concentration (MIC) (Fusarium spp.): 0.0700 % w/w as Cu | Minimum Fungicidal Concentration (MFC) (Scopulariopsis spp.): >0.1400 % w/w as Cu | Minimum Inhibitory Concentration (MIC) (Scopulariopsis spp.): 0.0350 % w/w as Cu | Minimum Fungicidal Concentration (MFC) (Scedosporium spp.): >0.1400 % w/w as Cu | Minimum Inhibitory Concentration (MIC) (Scedosporium spp.): 0.0350 % w/w as Cu | Minimum Fungicidal Concentration (MFC) (Candida albicans): 0.0700 % w/w as Cu | Minimum Inhibitory Concentration (MIC) (Candida albicans): 0.0350 % w/w as Cu | Minimum Fungicidal Concentration (MFC) (C. tropicalis): 0.0700 % w/w as Cu | Minimum Inhibitory Concentration (MIC) (C. tropicalis): 0.0350 % w/w as Cu | Minimum Fungicidal Concentration (MFC) (C. parasilosis): 0.0350 % w/w as Cu | Minimum Inhibitory Concentration (MIC) (C. parasilosis): 0.0350 % w/w as Cu | Minimum Fungicidal Concentration (MFC) (C. glabrate): 0.1400 % w/w as Cu | Minimum Inhibitory Concentration (MIC) (C. glabrate): 0.0350 % w/w as Cu | Minimum Fungicidal Concentration (MFC) [2]: 0.0350 % w/w as Cu | Minimum Inhibitory Concentration (MIC) [2]: 0.0350 % w/w as Cu | Minimum Fungicidal Concentration (MFC) (C. krusei): 0.0175 % w/w as Cu | Minimum Inhibitory Concentration (MIC) (C. krusei): 0.0175 % w/w as Cu
